This note sets out measurements from US20200010910A1, “Cytotoxic Chemotherapy-Based Predictive Assays for Acute Myeloid Leukemia” (The Regents of The University of California, priority 2017, published 2020).

Series [1] in a line: safety of radiolabeled microdose in patients. The settings on record: IV microdose, 1% of the therapeutic dose.
Description: Microdoses of the [^14C]Carboplatin were administered to human cancer patients as a diagnostic reagent, followed by full dose platinum-based chemotherapy and evaluation of response. Within four weeks of the [^14C]carboplatin microdose, these patients received standard of care chemotherapy for their disease, which included either carboplatin or cisplatin. The patient population consisted of non-small cell lung cancer patients (NSCLC), stage IV with measurable lesions, and bladder transitional cell carcinoma (TCC) patients, stage II disease and above for neoadjuvant treatment, or stage III and IV metastatic disease with measurable lesions for palliative chemotherapy. Patients were identified for this study as having measurable lesions using the Response Evaluation Criteria in Solid Tumor (RECIST), an Eastern Cooperative Oncology Group performance status of <2, and adequate bone marrow and vital organ function. PBMC and tumor tissue were collected from the patients for analysis of carboplatin-DNA monoadduct frequencies. Toxicity of the [^14C]carboplatin diagnostic reagent administered as a microdose was assessed using Common Terminology Criteria for Adverse Events (CTCAE). Toxicities of grade 3 and above were also collected for patient specific toxic response to full dose chemotherapy for correlation analysis to carboplatin-DNA monoadduct frequency. Patient response to chemotherapy was evaluated using the RECIST for correlation to carboplatin-DNA monoadduct frequency.
The dose of carboplatin in the diagnostic microdose was chosen to be sub-toxic and non-therapeutic, to minimize patient chemical and radiation exposure, and to result in AMS measurable carboplatin-DNA monoadducts. Nineteen patients have been administered at least one microdose of [^14C]carboplatin via IV infusion as a diagnostic reagent. Patient toxicity related to the microdose was monitored from the time of IV microdose until the patients received their first chemotherapy. […] The total radioactive dose given to a 75 kg patient after an IV microdose of [^14C]carboplatin is calculated to be 338 μCi. […]
Series [2] is described as follows: human plasma pharmacokinetics of [14C]carboplatin. It counts as in vivo. The protocol: Two of the bladder cancer patients received two doses of [^14C]carboplatin, including the initial diagnostic microdose and a second microdose at the time of full therapeutic dose. This allowed us to compare the pharmacokinetics of carboplatin in plasma after both microdosing and therapeutic dosing (FIG. 11A). […] Therefore, microdosing and therapeutic dosing yield similar carboplatin pharmacokinetics in human patients.
The pharmacokinetics of carboplatin administered as a microdose was assessed in four patients (two with bladder cancer and two with NSLC) for the purpose of comparing interpatient variability and establishing the optimum time point for tumor biopsy sample acquisition.

The test system of a further series is H232A tumor xenografts. The series is described as follows: DNA repair: monoadducts remaining in excised xenograft tumor. The settings on record: H23; tumor excised 4 h after microdose, 8 hours in carboplatin-free medium. Format: in vivo, mice. Here is the method:
(§1) DNA repair rates in the xenograft tumor cells were also observed to correlate with carboplatin resistance. This is exemplified by the measurement of DNA repair in the A549 and H232A tumor xenografts (FIG. 10D). Four hours after a microdose was administered to three mice each with A549 and H232A tumor xenografts, the animals were sacrificed and tumors were excised. Tissue from each tumor was minced with a scalpel and washed with PBS. Half of the sample was frozen immediately (control) and half was incubated in cell culture medium (no carboplatin) for 8 hours prior to storage. DNA was extracted from the two sets of experiments and analyzed for carboplatin-DNA monoadducts. The resistant A549 cell line had 4±3% of the carboplatin-DNA monoadducts remaining compared to the control, whereas 56±8% of the monoadducts persisted for the drug sensitive H23 cells.

Another series has as its system A549 tumor xenografts. Described as above. It counts as in vivo, mice. The conditions noted are these: tumor excised 4 h after microdose, 8 hours in carboplatin-free medium. The protocol: as §1
A further series has as its system PDX Model BL0645. Nature of the series: drug-DNA adducts in PDX tumor by AMS. It counts as in vivo, NSG mice. The settings on record: 24 h. The source says: (§2) Female NSG mice (5-8 weeks of age, body weight: 20 to 25 g) were obtained from Jackson Laboratories (CA, USA). All animals were kept under pathogen-free conditions and were allowed to acclimatize for at least 4 days prior to any experiments. PDX models bearing the indicated patient derived xenografts were created by subcutaneous injection at the flank of 1 mm^3 tumor tissue. To establish multiple PDXs to allow efficacy studies with multiple drugs, PDXs from passage 2-4 were minced into 1 mm^3 sections and injected subcutaneously into multiple mice. At least 3 mice were used for each treatment group. Tumors were allowed to grow to at about 100 mm^3 before being assessed for drug sensitivity or the induction of DNA adducts by the administration of a microdose or a therapeutic dose of labeled drug. To assess tumor response to chemotherapy, cisplatin was administered at 2 mg/kg IV every 7 days for a total of 3 cycles, or gemcitabine was administered at 150 mg/kg IP every 7 days for a total of 4 cycles. G/C combination chemotherapy consisted of the simultaneous administration of both drugs using the schema described above. Tumor growth was assessed by measuring palpable tumors with a caliper and calculating tumor volume. Drug-DNA adduct frequencies were measured in tumor tissue collected 24 hours after intravenous injection of labeled drug and stored at −80° C. until DNA isolation. DNA was isolated using a modified Wizard procedure (Promega), quantitated by spectrophotometry, and then stored frozen at −20° C. until AMS analysis. Ten micrograms of DNA per sample was converted to graphite and measured by AMS for 14C quantification as previously described.
(§3) NSG mice bearing the indicated PDX tumors were injected with a microdose of ^14C-labeled carboplatin (FIG. 22A) or ^14C-labeled gemcitabine (FIG. 22B). The microdose of ^14C-labeled carboplatin was 0.375 mg/kg carboplatin, 50,000 dpm/g. The microdose of ^14C-labeled gemcitabine was 0.092 mg/kg gemcitabine, 1000 dpm/g. The doses of each drug administered to the mice were chosen to target 1 μM in plasma concentration of carboplatin and 0.3 μM in plasma concentration of gemcitabine. These plasma concentrations represent 1% of the approximate peak plasma concentration during human chemotherapy. Animals were sacrificed after 24 h and drug-DNA adduct frequency was determined from collected tumor tissue by AMS measurements of ^14C in tumor DNA. Carboplatin DNA-adduct levels correlate with PDX model sensitivity to cisplatin at 24 h after microdosing (FIG. 22A). Gemcitabine DNA-adduct levels correlate with PDX model sensitivity to gemcitabine at 24 h after microdosing (FIG. 22B). […] There is no significant difference in carboplatin-DNA monoadduct levels between the three resistant PDX models. […] We conclude that microdose induced carboplatin-DNA monoadducts predicts sensitivity to cisplatin chemotherapy, and microdose induced gemcitabine incorporation predicts sensitivity to gemcitabine chemotherapy.
(§4) In this example we test whether gemcitabine/carboplatin (G/Carbo) combination therapy has an effect on the formation of drug-DNA adducts in this synergistic tumor model. In FIG. 23A, NGS mice bearing BL0645 xenographs were administered via tail vein injection a therapeutic dose of [^14C]carboplatin alone or a therapeutic dose of [^14C]carboplatin in combination with a therapeutic dose of gemcitabine. Carboplatin-DNA monoadducts were measured in tumor tissue 24 h after dosing. A therapeutic dose of the combination [^14C]carboplatin plus unlabeled gemcitabine leads to a significant increase in carboplatin-DNA monoadduct level (94.84±16.02 versus 209.6±64.66 adducts per 10^8 nucleotides, p=0.032) compared to treatment with carboplatin alone. In FIG. 23B, the same experiment was conducted in which the mice received a therapeutic dose of [^14C]gemcitabine alone or a therapeutic dose of [^14C]gemcitabine in combination with a therapeutic dose of unlabeled carboplatin. […]

A further series has as its system PDX Model BL0269. Nature of the series: drug-DNA adducts in PDX tumor by AMS. It counts as in vivo, NSG mice.
Description: as §2, §3, §4

In the case of `N.N.O=C([O-])C1(C(=O)[O-])CCC1.[Pt+2]` [carboplatin], the clinical side effects result in series [1] is on record as “None of the clinical side effects associated with standard therapeutic doses of carboplatin were observed”. In addition, in series [1], the “tolerability of radiolabeled microdose” value is on record as “well tolerated”. For the same compound, the plasma half-life entry in series [2] (microdose, four patients) is recorded as “a few hours”. For the same compound, the “time to essential clearance from the blood” value in series [2] (microdose, four patients) is reported as not above 24 h. For the same compound, the “difference in plasma elimination kinetics between therapeutic and microdoses” value in series [2] (two bladder cancer patients, 24 h) is listed as “less than 2 fold”. Also, the “carboplatin-DNA monoadducts remaining compared to the control” value came out at 56±8% in the series on H232A tumor xenografts and 4±3% in the series on A549 tumor xenografts. Further, the “mean carboplatin-DNA monoadduct level” value is 1.27±0.307 adducts per 10^8 nucleotides with PDX Model BL0645 (microdose 0.375 mg/kg carboplatin alone or with gemcitabine 0.092 mg/kg) and 1.77±0.706 adducts per 10^8 nucleotides with PDX Model BL0269 (microdose 0.375 mg/kg carboplatin, 24 h (FIG. 22A)). Moreover, the carboplatin-DNA monoadduct level with PDX Model BL0645 (therapeutic 37.5 mg/kg carboplatin alone or with gemcitabine 9.2 mg/kg) is listed as 94.84±16.02 adducts per 10^8 nucleotides. Moreover, the Carboplatin-DNA monoadduct levels in the series on PDX Model BL0269 (control experiment FIG. 23E, microdose single agent or G/Carbo combination) is recorded as 1.85±0.798 adducts per 10^8 nucleotides.
